Assay results from PMC7144209, “Design, synthesis and anticancer activity of naphthoquinone derivatives” (Journal of Enzyme Inhibition and Medicinal Chemistry, 2020).

Columns and labels:
[1] = test system: SGC-7901 cells; test: Annexin V-FITC/PI apoptosis assay (flow cytometry); type: cell-based, human; settings: 48 h; for total apoptosis: control 4.34%
Protocol: After the indicated treatments for 48 h, cells were collected, washed three times with cold PBS, centrifuged and resuspended with 400 μL AnnexinV binding buffer per tube. Then the cells were stained with 5μLAnnexinV-FITC and incubated in the dark for 10 min on ice. Finally, 10 μL PI staining solution was added, and cells were detected by the flow cytometry after incubated in the dark for 5 min. Flowjo 7.6.1 software was used to analyse the cell apoptosis.
(§1) Apoptosis is one of the main methods that result in cell death. In this study, Annexin V-FITC/PI kit was used to evaluate the cell apoptosis. […] To further, investigate whether the cell apoptosis induced by title compound, Western blot analysis was used to measure the effect of the compound on apoptosis of SGC-7901 cell. As reported that apoptosis pathway could be regulated by the activation of PARP and Bcl2 family proteins[40]^,[41].

[2] = test system: Bax, Bcl-2, cleaved PARP in SGC-7901 cells; test: Western blot of apoptosis-related proteins; type: cell-based, human
Protocol: RIPA lysis buffer was used to dissociate the treated cells. Cells were lysed and the supernatant was harvested after centrifuged for 30 min. The cell proteins were separated using Sodium dodecyl sulphate-polyacrylamide gel electrophoresis, and then they were transferred to the PVDF membranes. The membranes were blocked with skimmed milk solution (5%) for 2 h, then incubated with primary antibodies (1:1000, cst) for 20 h at 4 °C. The membranes were detected by chemiluminescence reagent after probed with the secondary antibody for 1 h.
as §1

[3] = SGC-7901, increasing concentration (1, 2, 4 μM)

For `CC(C)=CCC(OC(=O)CCC(=O)Nc1ccc(Oc2ccccc2)cc1)C1=CC(=O)c2c(O)ccc(O)c2C1=O` (centres unmarked) [Compound 12, 1-(5,8-dihydroxy-1,4-dioxo-1,4-dihydronaphthalen-2-yl)-4-methylpent-3-en-1-yl-4-oxo-4-((4-phenoxyphenyl)amino)butanoate], which total apoptosis ([1]; SGC-7901, 1 μM) is on record?
Its total apoptosis is 6.45%.

What about the total apoptosis ([1]; SGC-7901, 2 μM) of the same compound?
The total apoptosis was 9.72%.

And the total apoptosis ([1]; SGC-7901, 4 μM)?
Its total apoptosis is 19.9%.

What about the “apoptosis rate in the presence of 3-MA compared with compound 12 alone” value ([1]; compound 12 4 μM, 3-MA 500 μM) of the same compound?
The value was “decreased”.

And the “level of Bax” value [2, 3]?
The value was “up-regulated”.

What about the “level of Bcl2” value [2, 3] of the same compound?
The value was “down-regulated”.

What about the “level of cleaved PARP” value [2, 3] of the same compound?
The value was “up-regulated”.

What about the “up-regulation of Bax and cl-PARP and down-regulation of Bcl-2 in the group with 3-MA” value ([2]; compound 12 with 3-MA 500 μM, 48 h) of the same compound?
Its value is “inhibited”.
